From patent publication US9682031B2, “Microcapsules comprising benzoyl peroxide and topical compositions comprising them” (Tagra Biotechnologies Ltd., priority 2009, dated 2017)

Assays:
Format in all cases: physicochemical
[1] = Congo red oxidation sensitivity / qualitative diffusion test; conditions: microcapsules = sample 2 (PMMA-BPO); 4% (w/w) BPO free or encapsulated, BPO/congo red 30:1, 50-55° C.
Procedure: Azo-dye congo red was used as a model for oxidation-sensitive component, the ratio BPO/congo red=30:1(w/w).
Three comparative systems were utilized: • 1—BPO microcapsules (sample 2) • 2—free BPO • 3—without BPO (blank)
For the preparation of (1) and (2), 9 g (ml) aqueous dispersion containing 4% (w/w) BPO (free or encapsulated) were suspended with 0.1% Tween™ 20 (polysorbate 20) and 9 g liquid vehicle and stirred in a 25 ml beaker with a magnetic stirrer. Following a mixing period of 30 minutes, the temperature of the system was raised to 50-55° C. and 1 ml of a 1% aqueous solution of congo red were added. The blank system (3) was prepared by stirring 9 ml 0.1% Tween™ 20 and 9 g liquid vehicle, and adding 1 ml of a 1% aqueous solution of congo red. After stirring the suspension for 1 minute, pictures of the three systems were taken.

[2] = Chemical stability of BPO in gel containing 1% free retinol, 40° C., 30 days (HPLC); conditions: encapsulated = sample 21; gel with 1% free retinol, 5% BPO, 30 days storage at 40° C.
Procedure: HPLC was used for BPO analysis following storage at 40° C. (encapsulated BPO vs. free BPO in a gel formulation containing 1% free retinol).

[3] = Chemical stability of BPO in aqueous gel formulation, 40° C., 90 days (HPLC); conditions: 5% BPO, 90 days at 40° C. (FIG. 21)
Procedure: Geogard (0.7 g, Lonza) was dissolved in water by heating to 40-50° C. and the solution was allowed to cool to room temperature. Clindamycin phosphate was optionally dissolved in the solution (in formulations comprising antibiotics). Xanthan gum (1 g, Interaxion) was slowly added under medium mixing until the xanthan gum gel was formed. BPO microcapsules were then added to the gel by simple mixing. The composition of the gel formulation is detailed in Table 8 below.
BPO microcapsules were incorporated into the gel formulation (gel base comprising no clindamycin) at final BPO concentration of 5% and incubated at 40° C. over 90 days. Stability studies were performed for compositions comprising only encapsulated BPO or encapsulated BPO in combination with 0.75-1% of Clindamycin Phosphate. BPO concentration was determined immediately after incorporation into gel formulation and after 30, 60 and 90 days. Total concentration of BPO was determined by mixing 1 gr of the gel formulation with dichloromethane/methanollacetonitrile solution. BPO concentration in water phase was determined after separation of microcapsules from gel by centrifugation. The water phase was mixed with dichloromethane/methanol/acetonitrile solution in order to extract BPO and its content was determined using HPLC.

color of congo red solution [1]: changed its color from red to yellow
relative content of BPO from the initial concentration [2]: 36%
decrease in the concentration of BPO [3]: negligible decrease
SMILES: O=C(OOC(=O)c1ccccc1)c1ccccc1 [free BPO, benzoyl peroxide]
